Values of other authors in publication PMC9363195, “Preclinical Pharmacokinetics, Biodistribution, and Acute Toxicity Evaluation of Caerin 1.9 Peptide in Sprague Dawley Rats” (Evidence-based Complementary and Alternative Medicine : eCAM, 2022).

Tested on: TC-1 cells
Settings: cited from earlier work
From the text: Caerin 1.1 and Caerin 1.9 are stable.

Substance: Caerin 1.1
- prevention of development of TC-1 cells after heating (heated at 100°C for 5 minutes): equally effective
- activity after incubation (room temperature, 7 days, low pH environment (pH5.5-7)): remained active
- bioactivity after incubation in temperature-sensitive gel (temperature-sensitive gel, room temperature, 30 days): maintained a similar degree of bioactivity
